Measurements taken from US20250295646A1, “METHODS OF USE OF T-TYPE CALCIUM CHANNEL MODULATORS” (Praxis Precision Medicines, Inc., priority 2022, published 2025).

System: adult patients with essential tremor
Experiment: Example 16: accelerometer-based (Kinesia ONE) TETRAS upper limb score
Assay type: in vivo, human
Description: Accelerometer (Kinesia ONE) TETRAS assessments were generally consistent with those conducted at the clinic. Accelerometer upper limb score values are summarized for Part A, the open-label titration phase of Part B, and the randomized withdrawal phase of Part B in Table 37, Table 38, and Table 39, respectively

[1] = Part B Open-Label Titration (N = 17), Day 42, Post - dose
[2] = Part B Open-Label Titration (N = 17), Day 42, Pre - dose
[3] = Part B Open-Label Titration, pre-dose baseline upper limb scores ≥10 (N = 12), Day 1, Post - dose
[4] = Part B Open-Label Titration, pre-dose baseline upper limb scores ≥10 (N = 12), Day 7
[5] = Part B Open-Label Titration, pre-dose baseline upper limb scores ≥10 (N = 12), Day 21
[6] = Part B Open-Label Titration, pre-dose baseline upper limb scores ≥10 (N = 12), Day 42, Post - dose
[7] = Part B Open-Label Titration, pre-dose baseline upper limb scores ≥10 (N = 12), Day 42, Pre - dose
[8] = Part B Randomized Withdrawal, Formula (I) group (N = 6), Day 1, Post - dose
[9] = Part B Randomized Withdrawal, Formula (I) group (N = 6), Day 7
[10] = Part B Randomized Withdrawal, Formula (I) group (N = 6), Day 21
[11] = Part B Randomized Withdrawal, Formula (I) group (N = 6), Day 42, Post - dose
[12] = Part B Randomized Withdrawal, Formula (I) group (N = 6), Day 42, Pre - dose
[13] = Part B Randomized Withdrawal, Formula (I) group (N = 6), Day 42 Post - dose (Randomization Baseline)
[14] = Part B Randomized Withdrawal, Formula (I) group (N = 6), Day 56
[15] = Part B Randomized Withdrawal, Formula (I) group (N = 6), Day 70
[16] = Part B Randomized Withdrawal, Day 56
[17] = Part B Randomized Withdrawal, Day 70

CC(C)(C)NC(=O)CN1CCC(CNC(=O)c2cc(F)cc(Cl)c2)CC1 [compound of formula (I), N-((1-(2-(tert-butylamino)-2-oxoethyl)piperidin-4-yl)methyl)-3-chloro-5-fluorobenzamide]
Percentage Change from Baseline in Tremor Amplitude, Median (Part B Open-Label Titration (N = 17), Day 21): −17.46% | Accelerometer-Based Upper Limb Score, Change from Baseline, LS Mean (SE) [1]: −1.798 (0.4511) | Accelerometer-Based Upper Limb Score, Change from Baseline, Mean (SD) [1]: −1.73 (2.009) | Accelerometer-Based Upper Limb Score, Change from Baseline, Median [1]: −2.40 | Accelerometer-Based Upper Limb Score, observed, Mean (SD) [1]: 9.44 (2.857) | Accelerometer-Based Upper Limb Score, observed, Median [1]: 8.60 | LS Mean Percentage Change in Tremor Amplitude [1]: −29.2% | Percentage Change from Baseline in Tremor Amplitude, Mean (SD) [1]: −24.06 (27.567) % | Percentage Change from Baseline in Tremor Amplitude, Median [1]: −36.90% | Accelerometer-Based Upper Limb Score, Change from Baseline, LS Mean (SE) [2]: −1.766 (0.5175) | Accelerometer-Based Upper Limb Score, Change from Baseline, Mean (SD) [2]: −1.70 (1.829) | Accelerometer-Based Upper Limb Score, Change from Baseline, Median [2]: −2.00 | Accelerometer-Based Upper Limb Score, observed, Mean (SD) [2]: 9.48 (3.369) | Accelerometer-Based Upper Limb Score, observed, Median [2]: 9.65 | LS Mean Percentage Change in Tremor Amplitude [2]: −28.7% | Percentage Change from Baseline in Tremor Amplitude, Mean (SD) [2]: −24.79 (26.969) % | Percentage Change from Baseline in Tremor Amplitude, Median [2]: −31.87% | Accelerometer-Based Upper Limb Score, Change from Baseline, LS Mean (SE) [3]: −0.764 (0.4030) | Accelerometer-Based Upper Limb Score, Change from Baseline, Mean (SD) [3]: −0.75 (1.696) | Accelerometer-Based Upper Limb Score, Change from Baseline, Median [3]: −0.93 | Accelerometer-Based Upper Limb Score, observed, Mean (SD) [3]: 11.00 (2.303) | Accelerometer-Based Upper Limb Score, observed, Median [3]: 10.95 | LS Mean Percentage Change in Tremor Amplitude [3]: −13.6% | Percentage Change from Baseline in Tremor Amplitude, Mean (SD) [3]: −11.30 (25.126) % | Percentage Change from Baseline in Tremor Amplitude, Median [3]: −16.10% | Accelerometer-Based Upper Limb Score, Change from Baseline, LS Mean (SE) [4]: −1.677 (0.4345) | Accelerometer-Based Upper Limb Score, Change from Baseline, Mean (SD) [4]: −2.03 (1.939) | Accelerometer-Based Upper Limb Score, Change from Baseline, Median [4]: −2.05 | Accelerometer-Based Upper Limb Score, observed, Mean (SD) [4]: 9.96 (3.151) | Accelerometer-Based Upper Limb Score, observed, Median [4]: 11.10 | LS Mean Percentage Change in Tremor Amplitude [4]: −27.5% | Percentage Change from Baseline in Tremor Amplitude, Mean (SD) [4]: −28.60 (24.257) % | Percentage Change from Baseline in Tremor Amplitude, Median [4]: −32.52% | Accelerometer-Based Upper Limb Score, Change from Baseline, LS Mean (SE) [5]: −2.295 (0.6539) | Accelerometer-Based Upper Limb Score, Change from Baseline, Mean (SD) [5]: −2.04 (2.248) | Accelerometer-Based Upper Limb Score, Change from Baseline, Median [5]: −1.48 | Accelerometer-Based Upper Limb Score, observed, Mean (SD) [5]: 9.91 (2.999) | Accelerometer-Based Upper Limb Score, observed, Median [5]: 10.98 | LS Mean Percentage Change in Tremor Amplitude [5]: −35.6% | Percentage Change from Baseline in Tremor Amplitude, Mean (SD) [5]: −27.37 (27.794) % | Percentage Change from Baseline in Tremor Amplitude, Median [5]: −24.34% | Accelerometer-Based Upper Limb Score, Change from Baseline, LS Mean (SE) [6]: −1.818 (0.5342) | Accelerometer-Based Upper Limb Score, Change from Baseline, Mean (SD) [6]: −1.87 (2.027) | Accelerometer-Based Upper Limb Score, Change from Baseline, Median [6]: −2.40 | Accelerometer-Based Upper Limb Score, observed, Mean (SD) [6]: 9.93 (2.878) | Accelerometer-Based Upper Limb Score, observed, Median [6]: 10.40 | LS Mean Percentage Change in Tremor Amplitude [6]: −29.4% | Percentage Change from Baseline in Tremor Amplitude, Mean (SD) [6]: −26.06 (27.100) % | Percentage Change from Baseline in Tremor Amplitude, Median [6]: −36.90% | Accelerometer-Based Upper Limb Score, Change from Baseline, LS Mean (SE) [7]: −1.559 (0.5803) | Accelerometer-Based Upper Limb Score, Change from Baseline, Mean (SD) [7]: −1.57 (1.914) | Accelerometer-Based Upper Limb Score, Change from Baseline, Median [7]: −2.00 | Accelerometer-Based Upper Limb Score, observed, Mean (SD) [7]: 10.23 (3.244) | Accelerometer-Based Upper Limb Score, observed, Median [7]: 11.15 | LS Mean Percentage Change in Tremor Amplitude [7]: −25.9% | Percentage Change from Baseline in Tremor Amplitude, Mean (SD) [7]: −22.96 (28.661) % | Percentage Change from Baseline in Tremor Amplitude, Median [7]: −31.87% | Accelerometer-Based Upper Limb Score, Change from Baseline, Mean (SD) [8]: −0.08 (1.710) | Accelerometer-Based Upper Limb Score, Change from Baseline, Median [8]: −0.78 | Accelerometer-Based Upper Limb Score, observed, Mean (SD) [8]: 9.98 (2.321) | Accelerometer-Based Upper Limb Score, observed, Median [8]: 10.78 | Percentage Change from Baseline in Tremor Amplitude, Mean (SD) [8]: −2.18 (27.539) % | Percentage Change from Baseline in Tremor Amplitude, Median [8]: −13.59% | Accelerometer-Based Upper Limb Score, Change from Baseline, Mean (SD) [9]: −0.79 (1.542) | Accelerometer-Based Upper Limb Score, Change from Baseline, Median [9]: −1.20 | Accelerometer-Based Upper Limb Score, observed, Mean (SD) [9]: 9.55 (2.774) | Accelerometer-Based Upper Limb Score, observed, Median [9]: 10.15 | Percentage Change from Baseline in Tremor Amplitude, Mean (SD) [9]: −12.59 (25.197) % | Percentage Change from Baseline in Tremor Amplitude, Median [9]: −19.95% | Accelerometer-Based Upper Limb Score, Change from Baseline, Mean (SD) [10]: −0.56 (1.273) | Accelerometer-Based Upper Limb Score, Change from Baseline, Median [10]: −0.55 | Accelerometer-Based Upper Limb Score, observed, Mean (SD) [10]: 9.50 (2.760) | Accelerometer-Based Upper Limb Score, observed, Median [10]: 9.88 | Percentage Change from Baseline in Tremor Amplitude, Mean (SD) [10]: −8.75 (21.102) % | Percentage Change from Baseline in Tremor Amplitude, Median [10]: −9.68% | Accelerometer-Based Upper Limb Score, Change from Baseline, Mean (SD) [11]: −0.68 (1.718) | Accelerometer-Based Upper Limb Score, Change from Baseline, Median [11]: −0.23 | Percentage Change from Baseline in Tremor Amplitude, Mean (SD) [11]: −9.46 (26.746) % | Percentage Change from Baseline in Tremor Amplitude, Median [11]: −3.87% | Accelerometer-Based Upper Limb Score, Change from Baseline, Mean (SD) [12]: −0.73 (1.948) | Accelerometer-Based Upper Limb Score, Change from Baseline, Median [12]: −0.98 | Accelerometer-Based Upper Limb Score, observed, Mean (SD) [12]: 9.33 (2.645) | Accelerometer-Based Upper Limb Score, observed, Median [12]: 10.40 | Percentage Change from Baseline in Tremor Amplitude, Mean (SD) [12]: −10.75 (29.656) % | Percentage Change from Baseline in Tremor Amplitude, Median [12]: −17.06% | Accelerometer-Based Upper Limb Score, observed, Mean (SD) [13]: 9.38 (2.242) | Accelerometer-Based Upper Limb Score, observed, Median [13]: 9.50 | Accelerometer-Based Upper Limb Score, Change from Baseline, Mean (SD) [14]: −0.55 (3.145) | Accelerometer-Based Upper Limb Score, Change from Baseline, Median [14]: 0.62 | Accelerometer-Based Upper Limb Score, Change from Randomization, LS Mean (SE) [14]: 0.120 (0.9528) | Accelerometer-Based Upper Limb Score, Change from Randomization, Mean (SD) [14]: 0.13 (1.495) | Accelerometer-Based Upper Limb Score, Change from Randomization, Median [14]: 0.70 | Accelerometer-Based Upper Limb Score, observed, Mean (SD) [14]: 9.51 (2.810) | Accelerometer-Based Upper Limb Score, observed, Median [14]: 9.75 | LS Mean Percentage Change in Tremor Amplitude (from Randomization) [14]: 2.3% | Percentage Change from Baseline in Tremor Amplitude, Mean (SD) [14]: −4.53 (43.487) % | Percentage Change from Baseline in Tremor Amplitude, Median [14]: 9.78% | Percentage Change from Randomization in Tremor Amplitude, Mean (SD) [14]: 2.74 (24.404) % | Percentage Change from Randomization in Tremor Amplitude, Median [14]: 12.37% | Accelerometer-Based Upper Limb Score, Change from Baseline, Mean (SD) [15]: 1.30 (2.932) | Accelerometer-Based Upper Limb Score, Change from Baseline, Median [15]: 0.35 | Accelerometer-Based Upper Limb Score, Change from Randomization, LS Mean (SE) [15]: 2.482 (1.0202) | Accelerometer-Based Upper Limb Score, Change from Randomization, Mean (SD) [15]: 2.34 (2.050) | Accelerometer-Based Upper Limb Score, Change from Randomization, Median [15]: 1.85 | Accelerometer-Based Upper Limb Score, observed, Mean (SD) [15]: 11.33 (2.653) | Accelerometer-Based Upper Limb Score, observed, Median [15]: 12.40 | LS Mean Percentage Change in Tremor Amplitude (from Randomization) [15]: 37.9% | Percentage Change from Baseline in Tremor Amplitude, Mean (SD) [15]: 14.62 (35.044) % | Percentage Change from Baseline in Tremor Amplitude, Median [15]: 6.50% | Percentage Change from Randomization in Tremor Amplitude, Mean (SD) [15]: 32.71 (20.891) % | Percentage Change from Randomization in Tremor Amplitude, Median [15]: 29.88% | LS Mean (SE) for Difference (Formula (I) - Placebo), change from Randomization in accelerometer-based upper limb score [16]: −2.227 (1.4135) | LS Mean Percentage Change Difference (Formula (I) - Placebo) [16]: −34.0% | LS Mean (SE) for Difference (Formula (I) - Placebo), change from Randomization in accelerometer-based upper limb score [17]: −0.356 (1.4667) | LS Mean Percentage Change Difference (Formula (I) - Placebo) [17]: −4.1%
